What was measured:
human COX-2 = biological target: T1, human COX-2 (Homo sapiens, UniProt P35354); assay: Inhibition of PGE2 release in COS cells stably transfected with human COX-2; assay type: cell-based; conditions: COS cells transfected with human COX-2; 1 hour preincubation, 30 μM arachidonic acid for 15 minutes, PGE2 by enzyme immunoassay
T1 construct: expressed in transfected cells; host or cells: COS cells (stably transfected)
T1 sequence (P35354 18-604): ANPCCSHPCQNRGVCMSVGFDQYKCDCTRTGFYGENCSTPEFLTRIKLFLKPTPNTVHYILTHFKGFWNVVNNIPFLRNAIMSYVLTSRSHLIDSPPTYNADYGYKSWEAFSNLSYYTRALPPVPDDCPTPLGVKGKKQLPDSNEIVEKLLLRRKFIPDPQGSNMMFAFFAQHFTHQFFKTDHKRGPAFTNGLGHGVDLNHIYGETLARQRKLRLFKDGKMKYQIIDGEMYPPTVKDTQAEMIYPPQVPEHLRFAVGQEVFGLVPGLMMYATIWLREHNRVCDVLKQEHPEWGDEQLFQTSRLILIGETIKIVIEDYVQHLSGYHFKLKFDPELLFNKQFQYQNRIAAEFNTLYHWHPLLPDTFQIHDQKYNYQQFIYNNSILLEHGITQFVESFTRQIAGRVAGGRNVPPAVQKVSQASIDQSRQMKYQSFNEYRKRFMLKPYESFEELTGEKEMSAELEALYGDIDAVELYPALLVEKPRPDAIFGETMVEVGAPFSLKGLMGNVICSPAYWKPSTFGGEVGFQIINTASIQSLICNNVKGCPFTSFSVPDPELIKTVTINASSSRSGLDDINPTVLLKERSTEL
Protocol: (§1) Inhibitory activity against human COX-1 and COX-2 was assessed in COS cells which had been stably transfected with cDNA for human COX-1 and human COX-2. 24 Hours prior to experiment, COS cells were transferred from the 175 cm^2 flasks in which they were grown, onto 24-well cell culture plates using the following procedure. The incubation medium (Dulbecco's modified eagles medium (DMEM) supplemented with heat-inactivated foetal calf serum (10% v/v), penicillin (100 IU/ml), streptomycin (100μg/ml) and geneticin (600 μg/ml)) was removed from a flask of confluent cells (1 flask at confluency contains approximately 1×10^7 cells). 10 ml of phosphate buffered saline (PBS) was added to the flask to wash the cells. Having discarded the PBS, cells were then rinsed in 10 ml trypsin for 20 seconds, after which the trypsin was removed and the flask placed in an incubator (37°) for 1-2 minutes until cells became detached from the flask. The flask was then removed from the incubator and cells resuspended in 10 ml of fresh incubation medium. The contents of the flask was transferred to a 250 ml sterile container and the volume of incubation medium subsequently made up to 100 ml. 1 ml cell suspension was pipetted into each well of 4×24-well cell culture plates. The plates were then placed in an incubator (37° C., 95% air/5% CO2) overnight. If more than 1 flask of cells were required, the cells from the individual flasks were combined before being dispensed into the 24-well plates.
(§2) Following the overnight incubation, the incubation medium was completely removed from the 24-well cell culture plates and replaced with 250 μl fresh DMEM (37° C.). The test compounds were made up to 250× the required test concentration in DMSO and were added to the wells in a volume of 1 μl. Plates were then mixed gently by swirling and then placed in an incubator for 1 hour (37° C., 95% air/5% CO2). Following the incubation period, 10 μl of arachidonic acid (750 μM) was added to each well to give a final arachidonic acid concentration of 30 μM. Plates were then incubated for a further 15 minutes, after which the incubation medium was removed from each well of the plates and stored at −20° C., prior to determination of prostaglandin E2 (PGE2) levels using enzyme immunoassay. The inhibitory potency of the test compound was expressed as an IC50 value, which is defined as the concentration of the compound required to inhibit the PGE2 release from the cells by 50%. The selectivity ratio of inhibition of COX-1 versus COX-2 was calculated by comparing respective IC50 values. The following IC50 values for inhibition of COX-2 and COX-1 were obtained for compounds of the invention: […]

human COX-1 = biological target: T2, human COX-1 (Homo sapiens, UniProt P23219); assay: Inhibition of PGE2 release in COS cells stably transfected with human COX-1; assay type: cell-based; conditions: COS cells transfected with human COX-1; 1 hour preincubation, 30 μM arachidonic acid for 15 minutes, PGE2 by enzyme immunoassay
T2 construct: expressed in transfected cells; host or cells: COS cells (stably transfected)
Protocol: as §1, §2

T2 sequence (P23219 24-599): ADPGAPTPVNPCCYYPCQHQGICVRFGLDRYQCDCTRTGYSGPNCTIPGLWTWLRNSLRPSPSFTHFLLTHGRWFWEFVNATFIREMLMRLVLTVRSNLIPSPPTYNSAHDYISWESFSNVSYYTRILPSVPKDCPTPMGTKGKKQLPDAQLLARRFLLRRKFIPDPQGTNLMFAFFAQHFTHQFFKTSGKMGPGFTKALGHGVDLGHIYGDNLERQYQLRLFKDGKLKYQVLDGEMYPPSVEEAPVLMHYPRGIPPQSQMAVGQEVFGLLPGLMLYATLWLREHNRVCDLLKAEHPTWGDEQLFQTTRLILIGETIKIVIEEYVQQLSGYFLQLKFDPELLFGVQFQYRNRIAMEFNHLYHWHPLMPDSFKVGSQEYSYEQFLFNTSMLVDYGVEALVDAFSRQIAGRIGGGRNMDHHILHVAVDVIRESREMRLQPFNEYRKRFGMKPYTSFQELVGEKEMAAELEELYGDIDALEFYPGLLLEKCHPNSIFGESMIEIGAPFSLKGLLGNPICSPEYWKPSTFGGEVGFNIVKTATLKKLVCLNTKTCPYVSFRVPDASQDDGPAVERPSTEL

Row | IC50 (human COX-2) [nM] | IC50 (human COX-1) [nM] | SMILES
1 | 5 | > 100000 | CS(=O)(=O)c1ccc(-c2c(-c3ccc(F)cc3)nn3cc(Br)ccc23)cc1 [4(iii), 6-Bromo-2-(4-fluorophenyl)-3-[4-(methylsulfonyl)phenyl]pyrazolo[1,5-a]pyridine]
2 | 5 | > 100000 | NS(=O)(=O)c1ccc(-c2c(-c3ccccc3)nn3cc(Cl)ccc23)cc1 [8(iii), 4-[6-Chloro-2-phenyl-pyrazolo[1,5-a]pyridin-3-yl]benzenesulfonamide]
3 | 21 | 20900 | N#Cc1ccc2c(-c3ccc(S(N)(=O)=O)cc3)c(-c3ccc(F)cc3)nn2c1 [Example 1(iv), 4-[6-Cyano-2-(4-fluorophenyl)pyrazolo[1,5-a]pyridin-3-yl]benzenesulfonamide]
4 | 12 | > 100000 | CS(=O)(=O)c1ccc(-c2c(-c3ccc(F)cc3)nn3cc(C#N)ccc23)cc1 [Example 2, 2-(4-Fluorophenyl)-3-[4-(methylsulfonyl)phenyl]pyrazolo[1,5-a]pyridine-6-carbonitrile]
5 | 1 | 6760 | NS(=O)(=O)c1ccc(-c2c(-c3ccc(F)cc3)nn3cc(Br)ccc23)cc1 [Example 3(vi), 4-[6-Bromo-2-(4-fluorophenyl)pyrazolo[1,5-a]pyridin-3-yl]benzenesulfonamide]
6 | 21 | 20900 | NS(=O)(=O)c1ccc(-c2c(-c3ccc(F)cc3)nn3cc(Cl)ccc23)cc1 [Example 5(vi), 4-[6-Chloro-2-(4-fluorophenyl)pyrazolo[1,5-a]pyridin-3-yl]benzenesulfonamide]
7 | 12 | > 100000 | CCOc1ccc(-c2nn3cc(Cl)ccc3c2-c2ccc(S(N)(=O)=O)cc2)cc1 [Example 6, 4-[6-Chloro-2-(4-ethoxyphenyl)pyrazolo[1,5-a]pyridin-3-yl]benzenesulfonamide]
8 | 1 | 6760 | NS(=O)(=O)c1ccc(-c2c(-c3cccc(F)c3)nn3cc(Cl)ccc23)cc1 [Example 7, 4-[6-Chloro-2-(3-fluorophenyl)pyrazolo[1,5-a]pyridin-3-yl]benzenesulfonamide]

— patent US6498166B1, “Pyrazolopyridines” (SmithKline Beecham Corporation, priority 1999, dated 2002)
